Measurements reported in patent US20180042891A1, “Cancer Cell Apoptosis” (e-Therapeutics plc, priority 2009, published 2018).

Experiments:
[1] = tested on: HCT116 colon cancer cells; experiment: Caspase 3/7 apoptosis and CellTiter-Blue cell viability assay, 24 hour; assay type: cell-based; details: HCT116, 24 hours incubation
Procedure: (§1) Assay was performed at a 24 hour timepoint on 3 melanoma lines (A375, G-361, WM266-4) 2 breast cancer lines (MCF7, MDA-MB-231), fibroblast (46BR.1G1), colon cancer (HCT116), prostate cancer (PC-3), glioblastoma (U373) and non-small cell lung cancer (NSCLC) (DMS-114)
(§2) The above cell lines were maintained in RPMI 1640 culture medium (Sigma, UK) containing 10% (v/v) heat inactivated foetal bovine serum (Sigma, UK) and 2 mM […] at 37° C. in 5% humidified CO2. Cells were harvested, washed, re-suspended into growth medium and counted (Beckman-Coulter Vi-CELL XR). Cells were plated onto the middle 240 wells of 384 tissue culture plates at 1.6×lO^5 to 2.4×lO^5 cells/ml in 12.5 μl/well aliquots. 50 μl of growth media was aliquoted into the outer wells. 2 plates were prepared per cell line. Plates were incubated overnight at 37° C., in 5% humidified CO2.
(§3) Dexanabinol was prepared in growth medium at 2 times the final assay concentration at 125, 31.3, 7.81, 2.00, 0.49, 0.12, 0.031 and O.OO8 μM (DMSO concentration was kept constant across the dilution range at 0.5%).
(§4) Cisplatin was used as a positive control. The final assays concentrations were 10, 2.5, 0.63, 0.156, 0.039, 0.010, 0.002 and 0.0006 μg/ml. […] 12.5 μl of growth media was added to the media control wells. The plates were incubated for 24 hours at 37° C., in 5% humidified CO2.
(§5) Caspase 3/7 levels were assessed by Apo-ONE® Homogeneous Caspase-3/7 assay kit. Fluorescence was measured using a FlexStation® II^384 plate reader at 1, 2, 3 and 4 hours after addition of the caspase substrate. The 4 hour readings were used for analysis.
(§6) The cell viability assay was performed in parallel on the same plate for each line using CellTiter-Blue® (Promega) reagent. Briefly, 25 μl of CellTiter-Blue® (Promega) reagent was added to each well. The plates were shaken for 1 minute at 500 rpm and then incubated at 37° C., 5% CO2 for 4 hours.

MCF7 breast cancer cells = experiment: as above; assay type: cell-based; details: MCF7, 24 hours incubation
Procedure: as §1, §2, §3, §4, §5, §6

U373 glioblastoma cells = experiment: as above; assay type: cell-based; details: U373, 24 hours incubation
Procedure: as §1, §2, §3, §4, §5, §6

DMS-114 NSCLC cells = experiment: as above; assay type: cell-based; details: DMS-114, 24 hours incubation
Procedure: as §1, §2, §3, §4, §5, §6

A375 melanoma cells = experiment: as above; assay type: cell-based; details: A375, 24 hours incubation
Procedure: as §1, §2, §3, §4, §5, §6

[2] = tested on: MDA-MB-231 breast cancer cells; experiment: as above; assay type: cell-based, human; details: MDA-MB-231, 24 hours incubation
Procedure: as §1, §2, §3, §4, §5, §6

G-361 melanoma cells = experiment: as above; assay type: cell-based, human; details: G-361, 24 hours incubation
Procedure: as §1, §2, §3, §4, §5, §6

[3] = tested on: PC-3 prostate cancer cells; experiment: as above; assay type: cell-based, human; details: PC-3, 24 hours incubation
Procedure: as §1, §2, §3, §4, §5, §6

[4] = tested on: 46Br.1G1 fibroblast cells; experiment: as above; assay type: cell-based, human; details: 46Br.1G1, 24 hours incubation
Procedure: as §1, §2, §3, §4, §5, §6

WM266-4 melanoma cells = experiment: as above; assay type: cell-based, human; details: WM266-4, 24 hours incubation
Procedure: as §1, §2, §3, §4, §5, §6

[5] = tested on: melanoma cell lines (A375, Malme-3M, UACC62); details: previous studies, WO '700; read-out: decreased growth, IC50 value; cited from earlier work
Panc-1 cells = tested on: Panc-1 cells; design: dose or concentration left out as unconfirmed; details: at this same concentration; cited from earlier work
CDK5 = CDK5 (Homo sapiens, UniProt Q00535); experiment: Direct assay against CDK5; assay type: biochemical; details: when directly assayed
Chain of CDK5 (Q00535 whole entry, species assumed): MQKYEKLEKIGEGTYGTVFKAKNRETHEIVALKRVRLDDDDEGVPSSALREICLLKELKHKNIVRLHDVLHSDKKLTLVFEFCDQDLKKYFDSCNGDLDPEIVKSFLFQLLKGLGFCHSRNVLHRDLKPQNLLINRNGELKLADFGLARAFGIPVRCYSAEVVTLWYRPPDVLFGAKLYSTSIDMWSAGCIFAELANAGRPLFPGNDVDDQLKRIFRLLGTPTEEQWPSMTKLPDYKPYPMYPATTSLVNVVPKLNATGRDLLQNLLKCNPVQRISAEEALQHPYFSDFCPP
Chain of CDK5 (Q15078 99-307 partner limits assumed, species assumed): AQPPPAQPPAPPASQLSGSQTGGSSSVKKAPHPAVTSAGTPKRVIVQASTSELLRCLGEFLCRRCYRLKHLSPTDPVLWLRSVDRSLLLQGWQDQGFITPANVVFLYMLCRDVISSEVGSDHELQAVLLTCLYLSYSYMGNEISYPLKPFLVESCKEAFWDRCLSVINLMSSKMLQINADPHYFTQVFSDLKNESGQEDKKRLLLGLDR

Aspc-1 = tested on: Aspc-1; design: dose or concentration left out as unconfirmed; details: cited from earlier work
CDK2 = CDK2 (Homo sapiens, UniProt P24941); experiment: Direct assay against CDK2; assay type: biochemical; details: when directly assayed
[6] = CellTiter-Blue cell viability (cytotoxicity), whole panel of cell lines; assay type: cell-based; details: human; at the highest concentration; read-out: loss in cell viability
Procedure: as §1, §2, §3
(§7) The final assays concentrations were 10, 2.5, 0.63, 0.156, 0.039, 0.010, 0.002 and 0.0006 μg/ml. […] 12.5 μl of growth media was added to the media control wells. The plates were incubated for 24 hours at 37° C., in 5% humidified CO2.
as §6

[7] = tested on: panel of cancer cell lines and a human fibroblast line; experiment: as above; assay type: cell-based
Procedure: as §1, §2, §3, §7, §6

[8] = tested on: panel of cancer cell lines and a human fibroblast line; experiment: Apo-ONE Caspase-3/7 apoptosis assay, whole panel of cell lines; assay type: cell-based
Procedure: as §1, §2, §3
Cisplatin was used as a positive control. […]
as §5

SMILES: N.N.[Cl][Pt][Cl] [Cisplatin, reference compound]
- IC50 [1]: 29.5 µM
- Rank: apoptosis induction and decrease in proliferation [1]: ** (moderate apoptosis induction and decrease in proliferation (35-70%))
- IC50 (MCF7 breast cancer cells): 40.6 µM
- Rank: apoptosis induction and decrease in proliferation (MCF7 breast cancer cells): ** (moderate apoptosis induction and decrease in proliferation (35-70%))
- IC50 (U373 glioblastoma cells): > 33 µM
- Rank: apoptosis induction and decrease in proliferation (U373 glioblastoma cells): * (weak apoptosis induction and decrease in proliferation (<35%))
- IC50 (DMS-114 NSCLC cells): ~40.2 µM
- Rank: apoptosis induction and decrease in proliferation (DMS-114 NSCLC cells): * (weak apoptosis induction and decrease in proliferation (<35%))
- IC50 (A375 melanoma cells): 21.8 µM
- Rank: apoptosis induction and decrease in proliferation (A375 melanoma cells): ** (moderate apoptosis induction and decrease in proliferation (35-70%))
- IC50 [2]: > 33 µM
- Rank: apoptosis induction and decrease in proliferation [2]: * (weak apoptosis induction and decrease in proliferation (<35%))
- IC50 (G-361 melanoma cells): 18 µM
- Rank: apoptosis induction and decrease in proliferation (G-361 melanoma cells): ** (moderate apoptosis induction and decrease in proliferation (35-70%))
- IC50 [3]: ~58 µM
- Rank: apoptosis induction and decrease in proliferation [3]: * (weak apoptosis induction and decrease in proliferation (<35%))
- IC50 [4]: 21.5 µM
- Rank: apoptosis induction and decrease in proliferation [4]: ** (moderate apoptosis induction and decrease in proliferation (35-70%))
- IC50 (WM266-4 melanoma cells): 62 µM
- Rank: apoptosis induction and decrease in proliferation (WM266-4 melanoma cells): * (weak apoptosis induction and decrease in proliferation (<35%))

SMILES: CCCCCCC(C)(C)c1cc(O)c2c(c1)OC(C)(C)[C@H]1CC=C(CO)C[C@H]21 [Dexanabinol, 1, 1 dimethyl heptyl-(3S,4S)-7-hydroxy-Δ^6-tetrahydrocannabinol]
- IC50 [5]: 10 to 20 µM
- Panc-1 cells proliferation inhibited (Panc-1 cells): 26%
- direct activity against CDK5 (CDK5): no significant direct activity
- Aspc-1 proliferation (Aspc-1): not affected
- direct activity against CDK2 (CDK2): no significant direct activity
- cytotoxicity at 24 h, 62.5 µM [6]: 100%
- IC50 ([7]; Homo sapiens, Fibroblast, read-out: cytotoxic response, IC50 values): 10 to 25 µM
- concentration giving dose-dependent decrease in cell viability ([7]; all cell lines): > 10^−5 M
- Rank: apoptosis induction and decrease in proliferation [1]: *** (good apoptosis induction and decrease in proliferation (>70%))
- IC50 ([1]; Homo sapiens, HCT-116): 22.3 µM
- IC50 (MCF7 breast cancer cells; Homo sapiens): 16.2 µM
- Rank: apoptosis induction and decrease in proliferation (MCF7 breast cancer cells): *** (good apoptosis induction and decrease in proliferation (>70%))
- IC50 (U373 glioblastoma cells; Homo sapiens, U373 MG): 10 to 50 µM
- Rank: apoptosis induction and decrease in proliferation (U373 glioblastoma cells): * (weak apoptosis induction and decrease in proliferation (<35%))
- Rank: apoptosis induction and decrease in proliferation (DMS-114 NSCLC cells): * (weak apoptosis induction and decrease in proliferation (<35%))
- IC50 (DMS-114 NSCLC cells; Homo sapiens): 10 to 50 µM
- Rank: apoptosis induction and decrease in proliferation (A375 melanoma cells): ** (moderate apoptosis induction and decrease in proliferation (35-70%))
- IC50 (A375 melanoma cells; Homo sapiens, A-375): 19.2 µM
- IC50 ([2]; Homo sapiens): 10 to 50 µM
- Rank: apoptosis induction and decrease in proliferation [2]: ** (moderate apoptosis induction and decrease in proliferation (35-70%))
- Rank: apoptosis induction and decrease in proliferation (G-361 melanoma cells): *** (good apoptosis induction and decrease in proliferation (>70%))
- IC50 (G-361 melanoma cells; Homo sapiens): 11 µM
- IC50 ([3]; Homo sapiens): 19.9 µM
- Rank: apoptosis induction and decrease in proliferation [3]: *** (good apoptosis induction and decrease in proliferation (>70%))
- Rank: apoptosis induction and decrease in proliferation [4]: *** (good apoptosis induction and decrease in proliferation (>70%))
- IC50 ([4]; Homo sapiens, Fibroblast): 23.1 µM
- IC50 (WM266-4 melanoma cells; Homo sapiens, WM 266-4): 20.9 µM
- Rank: apoptosis induction and decrease in proliferation (WM266-4 melanoma cells): ** (moderate apoptosis induction and decrease in proliferation (35-70%))
- concentrations at which pro-apoptotic effect and effect on cell number were shown [8]: ≥ 10 µM
- concentration of peak response in apoptosis ([8]; dropped at the highest concentration of 10 μM): 2.5 µM
